{
  "source": "patent US20250170153A1",
  "about": "“METHODS FOR THE TREATMENT OF ANXIETY DISORDER” (ANANDA SCIENTIFIC, INC., priority 2022, published 2025)",
  "key": {"[1]": {"experiment": "Chemical characteristics of composition A′, concentrated and diluted forms", "format": "physicochemical", "experimental": "Several tests were conducted to determine the chemical characteristics of composition A′, both in concentrated and diluted forms. […] All liquid nanodomain droplets range in size from 5 to 20 nm. The pH of both the concentrate and diluted formulations is between 6.0 and 7.5."}, "[2]": {"conditions": "rat, 120 mg/kg dose; cited from earlier work"}},
  "data": [
    {"smiles": "C=C(C)[C@@H]1CCC(C)=C[C@H]1c1c(O)cc(CCCCC)cc1O", "note": "[CBD, 2-(1R,6R)-3-methyl-6-prop-1-en-2-ylcyclohex-2-en-1-yl-5-pentylbenzene-1,3-diol]", "values": [
      {"measurement": "logP", "setting": "[1]", "value": 6},
      {"measurement": "Association of CBD with formulation phases during storage", "setting": "[1]; both concentrated and diluted forms of composition A′", "value": "remained associated with the surfactant and lipid phases"},
      {"measurement": "T1/2", "setting": "[2]", "value": "4 to 5", "unit": "h"}
    ]}
  ]
}
